Laboratory results as given in paper PMC5951611, “Structural studies and molecular dynamics simulations suggest a processive mechanism of exolytic lytic transglycosylase from Campylobacter jejuni” (PLoS ONE, 2018).
pKd: −log10 of the molar value.

Biological target: T1, soluble lytic transglycosylase Cj0843 (Campylobacter jejuni, UniProt Q0PA47)
T1 construct: gene Cj0843c; Cj0843-pET28b expressed in E. coli (not glycosylated); native P3_121 model contains residues 19–76 and 81–532
Assay: crystal structure ([…] Å, soaked crystals) and DSF Kd; also partial inhibition in PG turbidity assay
Assay type: binding

T1 sequence (Q0PA47 entry or part of it): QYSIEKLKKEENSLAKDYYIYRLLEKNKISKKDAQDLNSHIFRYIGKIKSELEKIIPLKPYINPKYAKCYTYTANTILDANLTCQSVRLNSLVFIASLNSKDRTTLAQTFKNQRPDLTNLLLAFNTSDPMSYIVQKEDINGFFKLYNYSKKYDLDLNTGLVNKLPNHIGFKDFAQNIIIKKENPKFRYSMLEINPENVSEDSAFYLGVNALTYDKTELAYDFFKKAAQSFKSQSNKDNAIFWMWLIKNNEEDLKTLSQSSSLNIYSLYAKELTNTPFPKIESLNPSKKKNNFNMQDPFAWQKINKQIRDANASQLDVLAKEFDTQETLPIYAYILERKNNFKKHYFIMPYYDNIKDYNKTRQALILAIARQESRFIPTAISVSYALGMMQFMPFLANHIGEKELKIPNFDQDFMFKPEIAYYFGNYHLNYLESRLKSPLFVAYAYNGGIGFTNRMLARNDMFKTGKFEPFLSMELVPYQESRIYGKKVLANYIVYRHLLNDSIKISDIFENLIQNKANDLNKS

CC(=O)N[C@H]1[C@H](O[C@H]2C[C@@H](C(=O)NCCS(=O)(=O)O)N[C@@H]2CO)O[C@H](CO)[C@@H](OS(=O)(=O)O)[C@@H]1O [bulgecin A]
pKd: 3.68
